Reference: the supplement of paper PMC10307832

Tests used:
Test in all cases: relative viability (nuclei count vs DMSO), 5 days (fraction); higher = more cells survive
CAL-12T = test system: CAL-12T
Method in brief: (§1)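 A single step with final 0.05% Triton X-100, 1% formaldehyde and 1 ug/ml Hoechst fixed the cells and stained nuclei 5 days after treatment. Lung cancer cell lines in 1536-well plates had been treated by pin tool the day after seeding with one drug alone or a fixed anchor-drug dose plus five library-drug doses (not always all listed) in √10 steps, and nuclei were counted on 4× images. Relative viability is the ratio of nuclei in treated wells to nuclei in vehicle wells, taken as the median of duplicate plates.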

COR-L 105 = test system: COR-L 105
Method in brief: as §1

COR-L23 = test system: COR-L23
Method in brief: as §1

HARA = test system: HARA
Method in brief: as §1

HCC-15 = test system: HCC-15
Method in brief: as §1

HCC-366 = test system: HCC-366
Method in brief: as §1

HCC-44 = test system: HCC-44
Method in brief: as §1

HCC-827 = test system: HCC-827
Method in brief: as §1

HOP-62 = test system: HOP-62
Method in brief: as §1

LC-2-ad = test system: LC-2-ad
Method in brief: as §1

LK-2 = test system: LK-2
Method in brief: as §1

LU99A = test system: LU99A
Method in brief: as §1

LXF-289 = test system: LXF-289
Method in brief: as §1

NCI-H1944 = test system: NCI-H1944
Method in brief: as §1

NCI-H1975 = test system: NCI-H1975
Method in brief: as §1

NCI-H2023 = test system: NCI-H2023
Method in brief: as §1

NCI-H2085 = test system: NCI-H2085
Method in brief: as §1

NCI-H2342 = test system: NCI-H2342
Method in brief: as §1

NCI-H522 = test system: NCI-H522
Method in brief: as §1

NCI-H647 = test system: NCI-H647
Method in brief: as §1

NCI-H838 = test system: NCI-H838
Method in brief: as §1

PC-14 = test system: PC-14
Method in brief: as §1

SW 900 = test system: SW 900
Method in brief: as §1

Oc1nc(-c2ccc(C(F)(F)F)cc2)nc2c1CSCC2 [XAV939] + O=C(c1cc(Cc2n[nH]c(=O)c3ccccc23)ccc1F)N1CCN(C(=O)C2CC2)CC1 [Olaparib] (partner 8 µM)
relative viability (CAL-12T; first compound 0.08 µM): 0.788 | relative viability (CAL-12T; first compound 0.253 µM): 0.699 | relative viability (CAL-12T; first compound 0.8 µM): 0.689 | relative viability (CAL-12T; first compound 2.53 µM): 0.654 | relative viability (COR-L 105; first compound 0.08 µM): 0.57 | relative viability (COR-L 105; first compound 0.253 µM): 0.486 | relative viability (COR-L 105; first compound 0.8 µM): 0.494 | relative viability (COR-L 105; first compound 2.53 µM): 0.561 | relative viability (COR-L23; first compound 0.08 µM): 0.321 | relative viability (COR-L23; first compound 0.253 µM): 0.386 | relative viability (COR-L23; first compound 0.8 µM): 0.315 | relative viability (COR-L23; first compound 2.53 µM): 0.29 | relative viability (HARA; first compound 0.08 µM): 0.832 | relative viability (HARA; first compound 0.253 µM): 0.862 | relative viability (HARA; first compound 0.8 µM): 0.759 | relative viability (HARA; first compound 2.53 µM): 0.661 | relative viability (HCC-15; first compound 0.08 µM): 0.693 | relative viability (HCC-15; first compound 0.253 µM): 0.717 | relative viability (HCC-15; first compound 0.8 µM): 0.67 | relative viability (HCC-15; first compound 2.53 µM): 0.676 | relative viability (HCC-366; first compound 0.08 µM): 0.414 | relative viability (HCC-366; first compound 0.253 µM): 0.326 | relative viability (HCC-366; first compound 0.8 µM): 0.283 | relative viability (HCC-366; first compound 2.53 µM): 0.175 | relative viability (HCC-44; first compound 0.08 µM): 0.935 | relative viability (HCC-44; first compound 0.253 µM): 0.904 | relative viability (HCC-44; first compound 0.8 µM): 0.958 | relative viability (HCC-44; first compound 2.53 µM): 0.866 | relative viability (HCC-827; first compound 0.08 µM): 0.622 | relative viability (HCC-827; first compound 0.253 µM): 0.667 | relative viability (HCC-827; first compound 0.8 µM): 0.62 | relative viability (HCC-827; first compound 2.53 µM): 0.769 | relative viability (HOP-62; first compound 0.08 µM): 0.369 | relative viability (HOP-62; first compound 0.253 µM): 0.351 | relative viability (HOP-62; first compound 0.8 µM): 0.502 | relative viability (HOP-62; first compound 2.53 µM): 0.371 | relative viability (LC-2-ad; first compound 0.08 µM): 0.659 | relative viability (LC-2-ad; first compound 0.253 µM): 0.652 | relative viability (LC-2-ad; first compound 0.8 µM): 0.685 | relative viability (LC-2-ad; first compound 2.53 µM): 0.553 | relative viability (LK-2; first compound 0.08 µM): 0.607 | relative viability (LK-2; first compound 0.253 µM): 0.669 | relative viability (LK-2; first compound 0.8 µM): 0.84 | relative viability (LK-2; first compound 2.53 µM): 0.657 | relative viability (LU99A; first compound 0.08 µM): 0.258 | relative viability (LU99A; first compound 0.253 µM): 0.257 | relative viability (LU99A; first compound 0.8 µM): 0.271 | relative viability (LU99A; first compound 2.53 µM): 0.258 | relative viability (LXF-289; first compound 0.08 µM): 1.13 | relative viability (LXF-289; first compound 0.253 µM): 1.05 | relative viability (LXF-289; first compound 0.8 µM): 1.08 | relative viability (LXF-289; first compound 2.53 µM): 1.07 | relative viability (NCI-H1944; first compound 0.08 µM): 0.421 | relative viability (NCI-H1944; first compound 0.253 µM): 0.279 | relative viability (NCI-H1944; first compound 0.8 µM): 0.365 | relative viability (NCI-H1944; first compound 2.53 µM): 0.342 | relative viability (NCI-H1975; first compound 0.08 µM): 0.712 | relative viability (NCI-H1975; first compound 0.253 µM): 0.601 | relative viability (NCI-H1975; first compound 0.8 µM): 0.622 | relative viability (NCI-H1975; first compound 2.53 µM): 0.505 | relative viability (NCI-H2023; first compound 0.08 µM): 0.531 | relative viability (NCI-H2023; first compound 0.253 µM): 0.38 | relative viability (NCI-H2023; first compound 0.8 µM): 0.463 | relative viability (NCI-H2023; first compound 2.53 µM): 0.402 | relative viability (NCI-H2085; first compound 0.08 µM): 0.782 | relative viability (NCI-H2085; first compound 0.253 µM): 0.719 | relative viability (NCI-H2085; first compound 0.8 µM): 0.742 | relative viability (NCI-H2085; first compound 2.53 µM): 0.761 | relative viability (NCI-H2342; first compound 0.08 µM): 0.47 | relative viability (NCI-H2342; first compound 0.253 µM): 0.431 | relative viability (NCI-H2342; first compound 0.8 µM): 0.376 | relative viability (NCI-H2342; first compound 2.53 µM): 0.288 | relative viability (NCI-H522; first compound 0.08 µM): 0.887 | relative viability (NCI-H522; first compound 0.253 µM): 0.649 | relative viability (NCI-H522; first compound 0.8 µM): 0.63 | relative viability (NCI-H522; first compound 2.53 µM): 0.689 | relative viability (NCI-H647; first compound 0.08 µM): 0.734 | relative viability (NCI-H647; first compound 0.253 µM): 0.451 | relative viability (NCI-H647; first compound 0.8 µM): 0.506 | relative viability (NCI-H647; first compound 2.53 µM): 0.439 | relative viability (NCI-H838; first compound 0.08 µM): 0.755 | relative viability (NCI-H838; first compound 0.253 µM): 0.662 | relative viability (NCI-H838; first compound 0.8 µM): 0.597 | relative viability (NCI-H838; first compound 2.53 µM): 0.398 | relative viability (PC-14; first compound 0.08 µM): 0.305 | relative viability (PC-14; first compound 0.253 µM): 0.208 | relative viability (PC-14; first compound 0.8 µM): 0.313 | relative viability (PC-14; first compound 2.53 µM): 0.248 | relative viability (SW 900; first compound 0.253 µM): 0.844 | relative viability (SW 900; first compound 0.8 µM): 0.832 | relative viability (SW 900; first compound 2.53 µM): 0.421
